Source: patent US9908879B2, “P2X3 and/or P2X2/3 compounds and methods” (Asana Biosciences, LLC, priority 2013, dated 2018)

Key:
P2X3 = biological target: T1, P2X3 (UniProt P56373); assay: FLIPR intracellular calcium assay, P2X3; assay type: cell-based, human or rat; details: agonist at EC75, species of receptor not given
T1 sequence (P56373 1-397): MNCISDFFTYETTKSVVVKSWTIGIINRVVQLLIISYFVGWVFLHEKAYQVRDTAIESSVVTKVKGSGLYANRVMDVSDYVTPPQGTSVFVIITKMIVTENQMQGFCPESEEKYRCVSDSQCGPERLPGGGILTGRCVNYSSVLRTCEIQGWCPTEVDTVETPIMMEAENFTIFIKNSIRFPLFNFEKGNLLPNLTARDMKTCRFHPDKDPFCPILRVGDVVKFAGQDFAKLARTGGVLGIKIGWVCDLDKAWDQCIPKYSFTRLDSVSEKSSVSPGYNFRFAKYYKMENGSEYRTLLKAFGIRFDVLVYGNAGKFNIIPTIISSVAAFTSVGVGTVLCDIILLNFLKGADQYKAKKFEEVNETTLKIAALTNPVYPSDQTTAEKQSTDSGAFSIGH
From the text: (§1) The FLIPR® assay utilizes cells which express human or rat P2X3 or P2X2/3 receptors. Recombinant cells expressing hP2X3 (Cat #6188) and hP2X2/3 (Cat #6179) were procured from Chantest Corp. Rat P2X2 (NCBI Accession No: U14414) was amplified by PCR from PC12 cDNA (a rat adrenal medulla cell line). The PCR product obtained containing the protein coding sequence of rat P2X2 was cloned into EcoRV-digested and dephosphorylated vector pIRES-puro3 within the multiple cloning site (MCS). See, FIG. 1A.
(§2) Cryo-vial containing 6×10^6 cells (human P2X3-HEK/human P2X2/3-TRex293/rat P2X2/3-TRex293/rat P2X3 TRex-CHO) was thawed in a 37° C. water bath. Cells were suspended in 20 mL of respective cell plating media (See annexure for composition) in a 50 mL centrifuge tube. The cell viability was checked with the help of Trypan Blue dye. Upon washing, cells were plated in a black 384-well clear bottomed, sterile poly-D-lysine coated plate such that, each well contained 10,000 cells (15,000/well for hP2X3) in 30 μL cell plating media. The plate was incubated in a 5% CO2 incubator at 37° C. for 24 h.
(§3) The next day, prior to the assay, the cell plating media was removed from each well by decanting and gentle tapping. Thirty μL of FLIPR Calcium 4 dye solution was added to each well. The plate was incubated at 37° C. for 45 min (60 min for hP2X3). The plate was next equilibrated at room temperature for 15 minutes before placing it in a 384 well FLIPR for the assay.
(§4) Compounds were dissolved in DMSO and serially diluted following 11 point half log (3.16 fold) dilution with a starting concentration of 2 mM. Dilutions were mixed with assay buffer just before performing the assay.
(§5) Compounds were added to the respective wells of the assay-ready cell plate with the help of the FLIPR and fluorescence readings were captured for 5 min to observe any possible agonistic property of the compounds. The plate was then incubated at room temperature for 15 min. The cells were stimulated with respective agonist EC75 concentration and the fluorescence readings were captured for another 5 min by FLIPR. The difference in fluorescence readings in presence of the compounds were compared with that of the control wells (wells having no compound) to calculate the inhibitory potency of the compounds. The IC50 values of the compounds were determined using the Graph pad Prism software.

P2X2/3 = biological target: T2, P2X2/3 (UniProt P56373+Q9UBL9); assay: FLIPR intracellular calcium assay, P2X2/3; assay type: cell-based, human or rat; details: agonist at EC75, species of receptor not given
T2 construct: hP2X2/3 (Cat #6179)
T2 sequence (P56373 1-397): T1 sequence (P56373 1-397)
T2 sequence (Q9UBL9 1-471): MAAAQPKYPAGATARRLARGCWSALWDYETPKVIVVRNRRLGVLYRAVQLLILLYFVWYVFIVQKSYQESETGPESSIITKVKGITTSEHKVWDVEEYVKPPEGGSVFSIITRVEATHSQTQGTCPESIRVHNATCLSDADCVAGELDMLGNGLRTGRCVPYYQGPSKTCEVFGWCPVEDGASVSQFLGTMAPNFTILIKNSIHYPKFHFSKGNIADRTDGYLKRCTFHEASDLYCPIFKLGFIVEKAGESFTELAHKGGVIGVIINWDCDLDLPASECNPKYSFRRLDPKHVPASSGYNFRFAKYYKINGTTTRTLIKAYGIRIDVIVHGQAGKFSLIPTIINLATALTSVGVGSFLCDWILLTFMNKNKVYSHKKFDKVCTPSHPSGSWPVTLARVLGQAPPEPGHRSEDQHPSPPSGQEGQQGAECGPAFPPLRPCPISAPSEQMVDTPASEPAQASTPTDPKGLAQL
From the text: as §1, §2, §3, §4, §5

[1] = test system: acetic acid induced writhing (visceral pain); assay: Acetic acid induced writhing test; assay type: in vivo; details: mouse, oral gavage 20, 40 and 60 mg/kg, 30 min before i.p. acetic acid, counted 15 min
Protocol: Swiss albino mice of 30-40 g were included in the study. The mice were given an intraperitoneal injection of 0.7% v/v acetic acid solution at an injection volume of 10 mL/kg, 30 min after oral administration of vehicle or test article control. Test articles were administered, typically, at doses between 20 and 60 mg/kg. The mice were placed individually into glass chambers. The number of writhes produced in these animals was counted for 15 min following acetic acid administration. For scoring purposes writhing was indicated by stretching of the abdomen with simultaneous stretching of at least one hind limb. See, e.g., FIG. 4. Statistical analysis was done with One way ANOVA followed by Dunnett's multiple comparison tests. Comparison was done between treatment groups and vehicle with respect to total number of writhes and p<0.05 was considered statistically significant. Each group comprised of 6 animals.

[2] = test system: formalin-induced hind limb flinches; assay: Formalin induced pain (Automated Nociception Analyzer test); assay type: in vivo; details: rat, oral gavage 100 mg/kg, 30 min before footpad formalin injection
Protocol: Male Sprague Dawley rats of young adult age group and body weight range of 200-250 g were included in the study. Animals were housed under a 12 h light/dark cycle with food and water ad libitum. Animals were acclimatized in the observation chambers of Automated Nociception Analyzer (ANA) for 45-60 min, twice daily for two days prior to the study day. On the day of the study, metal bands were glued to the plantar surface of the right hind paw of each animal enrolled in the study set and kept in plastic observation chambers for 10-15 min. Formalin injection was done in the animals after 0.5 or 1 h of oral treatment with test compound or vehicle (20% polyethylene glycol, 1% TweenTM 80 reagent, 79% water). Formalin injection of the animals was done with 50 μL of 2.5% formalin (freshly prepared from formaldehyde solution, Sigma, USA, Cat # F8775) injected subcutaneously in to the dorsum of right hind paw. Animals were placed back to their respective recording chambers of ANA immediately after injection. […] count data for each animal was recorded from 1 to 60 min post formalin injection, using ANA motion analysis software. The study was analyzed in 2 phases, the early phase extended from 0-10 min and second phase extended from 11-60 min post formalin injection. The data was collected in 5 min time bins and the counts of each bin were added up for total count of the phase. […]

## CCCCc1cnc2c(N3CCC(C)CC3)cc(C(=O)N[C@@H](C)c3nnc[nH]3)cn12 [Example 9, (S)—N-(1-(4H-1,2,4-Triazol-3-yl)ethyl)-3-butyl-8-(4-methylpiperidin-1-yl)imidazo[1,2-a]pyridine-6-carboxamide]
P2X3
  IC50: 1000 to 10000 nM
P2X2/3
  IC50: 1000 to 10000 nM

## CCc1cnnn1-c1cc(C(=O)NCc2ccc(C)nc2)cn2c(-c3ccc(C)s3)cnc12 [Example 22]
[1]
  pain responses (writhes) after acetic acid: clear dose-related reduction
[2]
  second phase flinching response to formalin: attenuated

## Cc1ccc(-c2cnc3c(Nc4ccccc4)cc(C(=O)NCc4ccc(C)[n+]([O-])c4)cn23)s1 [Example 89]
P2X3
  IC50: 1 to 100 nM
P2X2/3
  IC50: 100 to 1000 nM

## CCCSc1cnc2c(N3CCC(C)CC3)cc(C(=O)NCc3ccc(C)[n+]([O-])c3)cn12 [Example 114]
P2X3
  IC50: 1 to 100 nM

## Cc1ccc(-c2cnc3c(N4CCC(C)CC4)cc(C(=O)NCc4ccc(C)[n+]([O-])c4)cn23)s1 [Example 117]
P2X3
  IC50: 1 to 100 nM
P2X2/3
  IC50: 1 to 100 nM

## Cc1ccc(CNC(=O)c2cc(N3CCC(C)CC3)c3ncc(-c4ccc(Cl)s4)n3c2)c[n+]1[O-] [Example 119]
P2X3
  IC50: 1 to 100 nM
P2X2/3
  IC50: 100 to 1000 nM

## Cc1ccc(-c2cnc3c(NC4CCCCC4)cc(C(=O)NCc4ccc(C)[n+]([O-])c4)cn23)s1 [Example 120]
P2X3
  IC50: 1 to 100 nM
P2X2/3
  IC50: 1 to 100 nM

## Cc1ccc(-c2cnc3c(N4CCC(C)(C)CC4)cc(C(=O)NCc4ccc(C)[n+]([O-])c4)cn23)s1 [Example 122]
P2X3
  IC50: 1 to 100 nM
P2X2/3
  IC50: 1 to 100 nM

## Cc1ccc(-c2cnc3c(N4CCC(F)(F)CC4)cc(C(=O)NCc4ccc(C)[n+]([O-])c4)cn23)s1 [Example 123]
P2X3
  IC50: > 10000 nM
P2X2/3
  IC50: 1 to 100 nM

## Cc1ccc(-c2cnc3c(NC4CCCCC4)cc(C(=O)NCc4ccc(C(F)(F)F)[n+]([O-])c4)cn23)s1 [Example 124]
P2X3
  IC50: 100 to 1000 nM
P2X2/3
  IC50: 100 to 1000 nM

## Cc1cnc(-c2cnc3c(N4CCC(C)CC4)cc(C(=O)NCc4ccc(C)[n+]([O-])c4)cn23)s1 [Example 125]
P2X3
  IC50: 100 to 1000 nM
P2X2/3
  IC50: 100 to 1000 nM

## Cc1ccc(-c2cnc3c(N(C)C4CCCCC4)cc(C(=O)NCc4ccc(C)[n+]([O-])c4)cn23)s1 [Example 126]
P2X3
  IC50: > 10000 nM
P2X2/3
  IC50: 1 to 100 nM

## Cc1ccc(-c2cnc3c(N4CCC(F)CC4)cc(C(=O)NCc4ccc(C)[n+]([O-])c4)cn23)s1 [Example 127]
P2X3
  IC50: > 10000 nM
P2X2/3
  IC50: 1 to 100 nM

## Cc1ccc(-c2cnc3c(N4CCC(C(F)(F)F)CC4)cc(C(=O)NCc4ccc(C)[n+]([O-])c4)cn23)s1 [Example 131]
P2X3
  IC50: 1 to 100 nM
P2X2/3
  IC50: 100 to 1000 nM

## Cc1ccc(-c2cnc3c(N4CCC(CF)CC4)cc(C(=O)NCc4ccc(C)[n+]([O-])c4)cn23)s1 [Example 132]
P2X3
  IC50: 1 to 100 nM
P2X2/3
  IC50: 1 to 100 nM

## Cc1ccc(-c2cnc3c(N4CCC(F)(F)CC4)cc(C(=O)N[C@@H](C)C4=NN=CC4)cn23)s1 [Example 143]
P2X3
  IC50: 1000 to 10000 nM
P2X2/3
  IC50: 100 to 1000 nM

## Cc1ccc(-c2cnc3c(N4CCC(C)CC4)cc(C(=O)NCc4ccc[n+]([O-])c4)cn23)s1 [Example 147]
P2X3
  IC50: 1000 to 10000 nM
P2X2/3
  IC50: 100 to 1000 nM

## COc1ccc(CNC(=O)c2cc(-n3nnnc3C3CCC3)c3ncc(-c4ccc(C)s4)n3c2)cn1 [Example 163]
P2X3
  IC50: > 10000 nM
P2X2/3
  IC50: 1 to 100 nM

## Cc1ccc(-c2cnc3c(-n4nnnc4C4CCC4)cc(C(=O)N[C@@H](C)c4nnc[nH]4)cn23)s1 [Example 165]
P2X3
  IC50: 1 to 100 nM
P2X2/3
  IC50: 1 to 100 nM

## Cc1ccc(-c2cnc3c(-n4nnnc4C4CC4)cc(C(=O)N[C@@H](C)c4nnc[nH]4)cn23)s1 [Example 167]
P2X3
  IC50: 1 to 100 nM
P2X2/3
  IC50: 100 to 1000 nM
